The values below come from PMC10528299, “Targeting FAK/PYK2 with SJP1602 for Anti-Tumor Activity in Triple-Negative Breast Cancer” (Current Issues in Molecular Biology, 2023).

Experiment in all cases: Eurofins kinase profiling
Common to all, as to format: biochemical

The target of one assay is T1, Wee1(h) (Homo sapiens, UniProt P30291).
T1 construct: purchased Eurofins KinaseProfiler
Particulars: read-out: residual kinase activity Wee1(h). In short, it runs like this:
(§1)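 Radiometric detection, with radiolabeled phosphate as substrate, gave the kinase activity after each enzyme was incubated with 1 µM test compound. The run belonged to a 110-assay profiling panel.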

The target in a further assay is T2, MAPK2(h) (Homo sapiens, UniProt P28482).
T2 construct: purchased Eurofins KinaseProfiler
Particulars: read-out: residual kinase activity MAPK2(h). The method, boiled down:
as §1

The next assay addresses T3, Blk(h) (Homo sapiens, UniProt P51451).
T3 construct: purchased Eurofins KinaseProfiler
Particulars: read-out: residual kinase activity Blk(h). The method, boiled down:
as §1

In the next assay the target is T4, HIPK3(h) (Homo sapiens, UniProt Q9H422).
T4 construct: purchased Eurofins KinaseProfiler
Particulars: read-out: residual kinase activity HIPK3(h). In short, it runs like this: as §1

Another assay concerns the target T5, cSRC(h) (Homo sapiens, UniProt P12931).
T5 construct: purchased Eurofins KinaseProfiler
The conditions noted are these: read-out: residual kinase activity cSRC(h). The method, boiled down: as §1

In another assay the target is T6, PI3 Kinase (p120g)(h) (Homo sapiens, UniProt P48736).
T6 construct: purchased Eurofins KinaseProfiler
Particulars: read-out: residual kinase activity PI3 Kinase (p120g)(h). In short, it runs like this:
as §1

Another assay deals with T7, PKCι(h) (Homo sapiens, UniProt P41743).
T7 construct: purchased Eurofins KinaseProfiler
T7 sequence (P41743 1-596): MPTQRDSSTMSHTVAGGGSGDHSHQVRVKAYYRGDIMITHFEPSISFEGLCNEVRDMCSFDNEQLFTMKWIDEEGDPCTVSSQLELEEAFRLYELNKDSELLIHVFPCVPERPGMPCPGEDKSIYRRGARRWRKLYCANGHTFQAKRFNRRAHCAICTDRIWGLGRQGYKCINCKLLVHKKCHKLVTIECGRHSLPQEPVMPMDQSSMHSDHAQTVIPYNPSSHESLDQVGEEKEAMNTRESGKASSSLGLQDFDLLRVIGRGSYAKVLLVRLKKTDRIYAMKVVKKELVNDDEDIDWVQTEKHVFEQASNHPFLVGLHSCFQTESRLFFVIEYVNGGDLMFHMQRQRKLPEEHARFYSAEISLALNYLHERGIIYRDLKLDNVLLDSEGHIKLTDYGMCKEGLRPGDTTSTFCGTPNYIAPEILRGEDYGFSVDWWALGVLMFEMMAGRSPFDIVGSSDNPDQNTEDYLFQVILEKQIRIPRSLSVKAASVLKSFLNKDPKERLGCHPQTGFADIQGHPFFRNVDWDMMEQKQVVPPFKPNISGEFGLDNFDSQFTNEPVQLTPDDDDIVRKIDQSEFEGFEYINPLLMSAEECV
The conditions noted are these: read-out: residual kinase activity PKCι(h). The method, boiled down: as §1

The next assay concerns the target T8, Fer(h) (Homo sapiens, UniProt P16591).
T8 construct: purchased Eurofins KinaseProfiler
The conditions noted are these: read-out: residual kinase activity Fer(h). The method, boiled down: as §1

The target of a further assay is T9, PKCθ(h) (Homo sapiens, UniProt Q04759).
T9 construct: purchased Eurofins KinaseProfiler
The conditions noted are these: read-out: residual kinase activity PKCθ(h). The method, boiled down:
as §1

For the next assay, the target named is T10, cKit(V560G)(h) (Homo sapiens, UniProt P10721, V560G).
T10 construct: purchased Eurofins KinaseProfiler
Particulars: read-out: residual kinase activity cKit(V560G)(h). In short, it runs like this: as §1

The target in the next assay is T11, EGFR(T790M)(h) (Homo sapiens, UniProt P00533, T790M).
T11 construct: purchased Eurofins KinaseProfiler
Particulars: read-out: residual kinase activity EGFR(T790M)(h). In short, it runs like this: as §1

Assay [1] deals with T12, PI3 Kinase (p110a/p85a)(h) (Homo sapiens, UniProt P42336).
T12 construct: purchased Eurofins KinaseProfiler
The conditions noted are these: read-out: residual kinase activity PI3 Kinase (p110a/p85a)(h). The method, boiled down:
as §1

The target of another assay is T13, CK1γ1(h) (Homo sapiens, UniProt Q9HCP0).
T13 construct: purchased Eurofins KinaseProfiler
Particulars: read-out: residual kinase activity CK1γ1(h). The method, boiled down: as §1

The target in another assay is T14, PKCε(h) (Homo sapiens, UniProt Q02156).
T14 construct: purchased Eurofins KinaseProfiler
T14 sequence (Q02156 1-737): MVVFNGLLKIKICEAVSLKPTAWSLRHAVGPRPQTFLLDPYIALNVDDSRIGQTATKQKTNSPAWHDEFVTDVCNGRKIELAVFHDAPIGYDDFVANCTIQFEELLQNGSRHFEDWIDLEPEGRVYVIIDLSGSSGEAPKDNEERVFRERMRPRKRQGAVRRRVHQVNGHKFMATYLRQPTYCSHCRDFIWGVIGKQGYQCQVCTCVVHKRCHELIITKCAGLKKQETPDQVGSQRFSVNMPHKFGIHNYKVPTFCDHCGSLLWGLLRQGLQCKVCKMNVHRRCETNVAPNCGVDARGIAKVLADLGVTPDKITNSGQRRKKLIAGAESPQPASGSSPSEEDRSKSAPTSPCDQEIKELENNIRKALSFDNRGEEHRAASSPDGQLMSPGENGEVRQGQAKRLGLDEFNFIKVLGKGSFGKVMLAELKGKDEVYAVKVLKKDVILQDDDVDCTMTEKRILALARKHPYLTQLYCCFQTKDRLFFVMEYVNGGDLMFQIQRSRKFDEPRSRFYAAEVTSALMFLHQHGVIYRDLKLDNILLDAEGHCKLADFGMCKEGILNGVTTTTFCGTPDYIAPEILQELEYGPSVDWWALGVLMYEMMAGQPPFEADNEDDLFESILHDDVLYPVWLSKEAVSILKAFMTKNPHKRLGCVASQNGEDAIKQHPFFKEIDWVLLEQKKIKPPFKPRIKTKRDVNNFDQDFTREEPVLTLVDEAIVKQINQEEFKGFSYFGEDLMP
The conditions noted are these: read-out: residual kinase activity PKCε(h). In short, it runs like this: as §1

A further assay addresses T15, BRK(h) (Homo sapiens, UniProt Q13882).
T15 construct: purchased Eurofins KinaseProfiler
Particulars: read-out: residual kinase activity BRK(h). The method, boiled down:
as §1

The target in another assay is T16, B-Raf(V599E)(h) (Homo sapiens, UniProt P15056, V600E).
T16 construct: purchased Eurofins KinaseProfiler
Particulars: read-out: residual kinase activity B-Raf(V599E)(h). The method, boiled down: as §1

The next assay addresses T17, DAPK1(h) (Homo sapiens, UniProt P53355).
T17 construct: purchased Eurofins KinaseProfiler
The conditions noted are these: read-out: residual kinase activity DAPK1(h). In short, it runs like this:
as §1

T4 sequence (Q9H422 whole entry): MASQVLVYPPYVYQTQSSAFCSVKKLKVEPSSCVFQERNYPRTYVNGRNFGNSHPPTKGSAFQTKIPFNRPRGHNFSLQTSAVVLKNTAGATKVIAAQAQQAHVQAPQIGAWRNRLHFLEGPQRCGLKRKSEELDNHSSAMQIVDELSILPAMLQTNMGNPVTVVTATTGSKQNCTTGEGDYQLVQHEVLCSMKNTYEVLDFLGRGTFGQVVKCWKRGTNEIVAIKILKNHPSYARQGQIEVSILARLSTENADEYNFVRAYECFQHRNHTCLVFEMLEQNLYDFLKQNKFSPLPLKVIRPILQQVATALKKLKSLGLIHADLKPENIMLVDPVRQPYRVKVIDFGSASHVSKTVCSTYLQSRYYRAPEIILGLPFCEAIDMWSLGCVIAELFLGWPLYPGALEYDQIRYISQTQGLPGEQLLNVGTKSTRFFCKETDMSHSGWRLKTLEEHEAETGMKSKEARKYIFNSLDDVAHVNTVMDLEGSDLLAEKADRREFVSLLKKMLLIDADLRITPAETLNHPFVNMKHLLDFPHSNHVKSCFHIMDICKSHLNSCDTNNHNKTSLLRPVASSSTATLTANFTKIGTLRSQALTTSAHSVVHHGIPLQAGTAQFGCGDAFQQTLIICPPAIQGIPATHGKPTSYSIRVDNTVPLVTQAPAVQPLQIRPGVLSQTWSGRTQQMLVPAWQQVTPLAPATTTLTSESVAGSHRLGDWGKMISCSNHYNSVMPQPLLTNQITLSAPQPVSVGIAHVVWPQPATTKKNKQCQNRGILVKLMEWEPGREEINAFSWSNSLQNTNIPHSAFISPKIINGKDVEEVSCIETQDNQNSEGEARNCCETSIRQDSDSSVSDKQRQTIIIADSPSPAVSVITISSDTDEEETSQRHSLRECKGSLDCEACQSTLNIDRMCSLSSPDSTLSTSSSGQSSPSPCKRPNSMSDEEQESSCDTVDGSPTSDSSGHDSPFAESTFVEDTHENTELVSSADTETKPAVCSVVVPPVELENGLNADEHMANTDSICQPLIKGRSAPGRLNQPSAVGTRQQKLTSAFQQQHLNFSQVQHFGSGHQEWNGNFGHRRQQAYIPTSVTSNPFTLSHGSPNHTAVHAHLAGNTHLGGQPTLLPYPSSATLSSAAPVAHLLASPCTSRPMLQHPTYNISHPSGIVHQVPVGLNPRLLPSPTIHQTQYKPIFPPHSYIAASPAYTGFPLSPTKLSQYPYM
T15 sequence (Q13882 whole entry): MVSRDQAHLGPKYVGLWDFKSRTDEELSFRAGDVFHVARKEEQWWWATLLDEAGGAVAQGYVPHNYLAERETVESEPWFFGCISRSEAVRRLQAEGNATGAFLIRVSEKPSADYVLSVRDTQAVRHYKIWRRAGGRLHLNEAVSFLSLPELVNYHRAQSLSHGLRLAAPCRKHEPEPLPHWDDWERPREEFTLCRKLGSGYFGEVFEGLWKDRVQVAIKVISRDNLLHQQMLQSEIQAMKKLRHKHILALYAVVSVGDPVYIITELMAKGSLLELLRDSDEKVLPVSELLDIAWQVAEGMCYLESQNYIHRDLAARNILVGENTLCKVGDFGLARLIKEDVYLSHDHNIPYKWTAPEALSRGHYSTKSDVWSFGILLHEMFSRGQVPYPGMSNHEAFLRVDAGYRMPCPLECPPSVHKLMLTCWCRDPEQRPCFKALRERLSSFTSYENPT
T6 sequence (P48736 whole entry): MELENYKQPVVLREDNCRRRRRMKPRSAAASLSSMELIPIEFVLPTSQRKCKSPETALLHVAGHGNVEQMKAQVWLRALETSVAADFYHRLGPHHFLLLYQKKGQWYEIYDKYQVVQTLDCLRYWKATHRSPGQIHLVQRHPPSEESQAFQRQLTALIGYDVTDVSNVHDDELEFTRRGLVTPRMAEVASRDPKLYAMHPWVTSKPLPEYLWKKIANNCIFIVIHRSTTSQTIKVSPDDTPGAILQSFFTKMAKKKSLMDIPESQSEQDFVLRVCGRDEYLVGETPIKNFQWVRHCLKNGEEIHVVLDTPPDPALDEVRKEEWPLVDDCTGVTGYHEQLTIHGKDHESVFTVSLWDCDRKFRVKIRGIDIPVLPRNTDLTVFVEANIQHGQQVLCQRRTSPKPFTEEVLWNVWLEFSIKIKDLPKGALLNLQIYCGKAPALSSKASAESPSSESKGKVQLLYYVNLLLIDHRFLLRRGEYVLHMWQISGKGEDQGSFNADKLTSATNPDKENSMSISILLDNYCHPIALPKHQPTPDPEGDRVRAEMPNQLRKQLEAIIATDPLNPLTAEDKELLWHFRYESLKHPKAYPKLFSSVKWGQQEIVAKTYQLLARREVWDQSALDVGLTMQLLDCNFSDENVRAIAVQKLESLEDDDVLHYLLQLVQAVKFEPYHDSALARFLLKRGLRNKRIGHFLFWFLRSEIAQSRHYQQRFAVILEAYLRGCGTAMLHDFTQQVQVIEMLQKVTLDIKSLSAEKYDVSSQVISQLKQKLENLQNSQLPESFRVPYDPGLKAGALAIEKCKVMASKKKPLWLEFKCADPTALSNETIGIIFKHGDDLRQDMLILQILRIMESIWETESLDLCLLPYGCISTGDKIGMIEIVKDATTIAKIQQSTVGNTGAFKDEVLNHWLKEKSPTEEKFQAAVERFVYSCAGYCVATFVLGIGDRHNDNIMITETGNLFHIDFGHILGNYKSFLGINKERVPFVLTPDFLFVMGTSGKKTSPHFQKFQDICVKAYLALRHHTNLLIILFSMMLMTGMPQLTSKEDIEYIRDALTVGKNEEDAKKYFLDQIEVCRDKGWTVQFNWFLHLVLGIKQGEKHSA
T11 sequence (P00533 25-1210 T790M): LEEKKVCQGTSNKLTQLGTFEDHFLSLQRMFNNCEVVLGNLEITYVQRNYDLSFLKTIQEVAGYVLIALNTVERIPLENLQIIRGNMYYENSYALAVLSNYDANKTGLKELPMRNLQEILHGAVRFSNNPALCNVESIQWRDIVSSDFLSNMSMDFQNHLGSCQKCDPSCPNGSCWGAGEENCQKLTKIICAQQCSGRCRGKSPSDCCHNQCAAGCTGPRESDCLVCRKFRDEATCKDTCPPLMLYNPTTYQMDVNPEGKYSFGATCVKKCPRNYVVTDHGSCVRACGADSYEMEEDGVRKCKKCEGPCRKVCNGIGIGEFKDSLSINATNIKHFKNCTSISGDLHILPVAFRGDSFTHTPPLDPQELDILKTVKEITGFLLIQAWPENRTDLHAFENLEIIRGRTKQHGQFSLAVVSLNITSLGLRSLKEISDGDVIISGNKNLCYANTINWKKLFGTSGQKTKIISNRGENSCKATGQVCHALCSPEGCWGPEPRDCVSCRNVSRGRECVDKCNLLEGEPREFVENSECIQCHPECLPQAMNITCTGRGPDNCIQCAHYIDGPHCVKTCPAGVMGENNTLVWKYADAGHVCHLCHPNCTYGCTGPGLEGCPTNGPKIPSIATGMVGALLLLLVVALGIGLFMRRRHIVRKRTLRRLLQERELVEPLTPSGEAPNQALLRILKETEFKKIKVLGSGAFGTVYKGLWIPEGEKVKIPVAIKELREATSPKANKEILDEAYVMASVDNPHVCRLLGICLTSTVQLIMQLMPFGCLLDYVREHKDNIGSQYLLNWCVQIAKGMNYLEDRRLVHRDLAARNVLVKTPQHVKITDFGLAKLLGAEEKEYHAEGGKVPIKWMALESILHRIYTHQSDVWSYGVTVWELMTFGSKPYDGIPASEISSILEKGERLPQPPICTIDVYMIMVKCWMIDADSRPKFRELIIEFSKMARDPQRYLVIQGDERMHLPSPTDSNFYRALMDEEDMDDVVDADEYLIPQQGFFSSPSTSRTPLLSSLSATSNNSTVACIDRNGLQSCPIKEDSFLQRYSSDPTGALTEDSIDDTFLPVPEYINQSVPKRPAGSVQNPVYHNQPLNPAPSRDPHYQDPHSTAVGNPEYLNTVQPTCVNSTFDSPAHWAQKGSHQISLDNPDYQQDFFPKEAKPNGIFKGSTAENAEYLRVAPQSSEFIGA
T13 sequence (Q9HCP0 whole entry): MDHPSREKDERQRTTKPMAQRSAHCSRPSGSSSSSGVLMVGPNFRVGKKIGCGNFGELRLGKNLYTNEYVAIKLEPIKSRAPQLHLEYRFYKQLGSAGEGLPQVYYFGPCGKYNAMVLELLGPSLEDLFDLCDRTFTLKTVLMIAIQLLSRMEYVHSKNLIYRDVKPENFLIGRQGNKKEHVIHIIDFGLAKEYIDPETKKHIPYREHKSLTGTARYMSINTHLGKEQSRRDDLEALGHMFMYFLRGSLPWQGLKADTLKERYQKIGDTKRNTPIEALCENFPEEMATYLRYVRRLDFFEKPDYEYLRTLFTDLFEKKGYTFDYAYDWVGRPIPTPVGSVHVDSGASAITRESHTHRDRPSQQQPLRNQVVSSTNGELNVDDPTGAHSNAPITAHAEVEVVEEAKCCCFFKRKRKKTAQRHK
T5 sequence (P12931 whole entry): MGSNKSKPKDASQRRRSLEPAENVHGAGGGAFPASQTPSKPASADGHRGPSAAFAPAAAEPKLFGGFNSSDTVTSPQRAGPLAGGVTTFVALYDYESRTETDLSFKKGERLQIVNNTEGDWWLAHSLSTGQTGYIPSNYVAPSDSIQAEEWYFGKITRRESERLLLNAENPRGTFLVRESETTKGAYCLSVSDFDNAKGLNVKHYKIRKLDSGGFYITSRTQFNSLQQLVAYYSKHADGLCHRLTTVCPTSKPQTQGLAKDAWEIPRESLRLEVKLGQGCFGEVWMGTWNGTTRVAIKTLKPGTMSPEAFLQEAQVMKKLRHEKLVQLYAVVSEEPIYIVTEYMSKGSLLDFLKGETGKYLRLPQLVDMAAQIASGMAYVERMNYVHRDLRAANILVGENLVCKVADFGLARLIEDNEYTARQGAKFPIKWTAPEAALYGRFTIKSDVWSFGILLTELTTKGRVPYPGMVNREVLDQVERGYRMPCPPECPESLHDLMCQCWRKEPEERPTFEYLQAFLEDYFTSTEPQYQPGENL

`CONC(=O)c1ccccc1Nc1cc(Nc2cc(C)nn2C(C)C)ncc1Cl` [GSK2256098]: the remaining activity at 1 µM on Wee1(h) was 88%; on MAPK2(h) it was 94%; on Blk(h), 117%; on HIPK3(h) it was 106%; at cSRC(h) it was 88%; on PI3 Kinase (p120g)(h) it was 101%. The remaining activity at 1 µM amounted to 106% on PKCι(h); 105% on Fer(h); 96% on PKCθ(h); 104% on cKit(V560G)(h); 106% at EGFR(T790M)(h); 83% in [1]. Further, the remaining activity at 1 µM worked out at 99% on CK1γ1(h); 112% on PKCε(h); 67% on BRK(h); 67% on B-Raf(V599E)(h); 83% on DAPK1(h).
`CNC(=O)c1cccc(C)c1Nc1nc(Nc2ccc(N3CCN(C4C5CC6CC4CC(O)(C6)C5)CC3)cc2OC)ncc1C(F)(F)F` (stereo not drawn) [SJP1602, 2-((2-((4-(4-((2s,5r)-5-hydroxyadamantan-2-yl)piperazin-1-yl)-2-methoxyphenyl)amino)-5-(trifluoromethyl)pyrimidin-4-yl)amino)-N,3-dimethylbenzamide]: the remaining activity at 1 µM on Wee1(h) is 101%; at MAPK2(h), 95%; on Blk(h), 85%; at HIPK3(h), 100%; on cSRC(h), 99%; at PI3 Kinase (p120g)(h) it was 85%. The remaining activity at 1 µM turned out to be 93% at PKCι(h); 68% on Fer(h); 93% at PKCθ(h); 136% on cKit(V560G)(h); 119% at EGFR(T790M)(h); 104% in [1]. Further, the remaining activity at 1 µM at CK1γ1(h) worked out at 105%; on PKCε(h), 103%; at BRK(h) it was 109%; on B-Raf(V599E)(h), 105%; on DAPK1(h), 108%.
Consider `CNC(=O)c1ccc(Nc2ncc(C(F)(F)F)c(NCc3nccnc3N(C)S(C)(=O)=O)n2)cc1` [VS-6063, Defactinib], for which the remaining activity at 1 µM on Wee1(h) was 72%; at MAPK2(h), 87%; at Blk(h), 62%; at HIPK3(h), 54%; on cSRC(h) it was 72%; at PI3 Kinase (p120g)(h), 104%. Further, the remaining activity at 1 µM on PKCι(h) is 100%; on Fer(h), 31%; on PKCθ(h), 63%; on cKit(V560G)(h), 74%; at EGFR(T790M)(h), 82%; in assay [1], 103%. Moreover, the remaining activity at 1 µM on CK1γ1(h) amounted to 81%; at PKCε(h) it was 98%; on BRK(h) it was 91%; on B-Raf(V599E)(h), 89%; on DAPK1(h), 94%.
